Patent publication US8952024B2, “Herbicidal pyrimidone derivatives” (E I du Pont de Nemours and Company, priority 2009, dated 2015)

Key:
Assay in all cases: Test B pre-/postemergence plant response
Assay type in all cases: in vivo
[1] = tested on: Italian ryegrass (Lolium multiflorum)
Summary of the method: (§1)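 Seeds were sown in loam soil/sand blend and treated preemergence with compound in non-phytotoxic solvent mixture containing surfactant; postemergence sprays, same formulation, went onto plants 2 to 18 cm (1- to 4-leaf stage) in peat-based planting medium. Greenhouse 13 to 15 days, then visual rating versus untreated controls, 0 (no effect) to 100 (complete control).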

[2] = tested on: bermudagrass (Cynodon dactylon)
Summary of the method: as §1

[3] = tested on: corn (Zea mays)
Summary of the method: as §1

[4] = tested on: downy bromegrass (Bromus tectorum)
Summary of the method: as §1

[5] = tested on: giant foxtail (Setaria faberii)
Summary of the method: as §1

[6] = tested on: goosegrass (Eleusine indica)
Summary of the method: as §1

[7] = tested on: green foxtail (Setaria viridis)
Summary of the method: as §1

[8] = tested on: johnsongrass (Sorghum halepense)
Summary of the method: as §1

[9] = tested on: large crabgrass (Digitaria sanguinalis)
Summary of the method: as §1

[10] = tested on: morningglory (Ipomoea coccinea)
Summary of the method: as §1

[11] = tested on: ragweed (common ragweed, Ambrosia elatior)
Summary of the method: as §1

[12] = tested on: woolly cupgrass (Eriochloa villosa)
Summary of the method: as §1

[13] = tested on: yellow nutsedge (Cyperus esculentus)
Summary of the method: as §1

[14] = 62 g ai/ha, postemergence, 0 is no effect, 100 is complete control, 13 to 15 days
[15] = Postemergence, 31 g ai/ha, 0 to 100 scale (0 no effect, 100 complete control)
[16] = Postemergence, 125 g ai/ha, scale 0 to 100 (0 no effect, 100 complete control)
[17] = Postemergence, 250 g ai/ha, scale 0 to 100 (0 no effect, 100 complete control), 13 to 15 days
[18] = 250 g ai/ha, Preemergence, 0 to 100 scale
[19] = Postemergence, 62 g ai/ha, scale 0 (no effect) to 100 (complete control), 13 to 15 days
[20] = Postemergence, 125 g ai/ha, visual rating after 13 to 15 days, scale 0 (no effect) to 100 (complete control)
[21] = Preemergence, 31 g ai/ha, scale 0 to 100 (0 no effect, 100 complete control)
[22] = Preemergence, 125 g ai/ha, 0 to 100 scale
[23] = Postemergence, 31 g ai/ha, scale 0 to 100 (0 no effect, 100 complete control)
[24] = Postemergence, 250 g ai/ha, scale 0 to 100
[25] = Preemergence, 62 g ai/ha, scale 0 to 100 (0 no effect, 100 complete control)

COCCCn1c(-c2cccc(Br)c2)ncc(C(=O)C2=C(O)CCCC2=O)c1=O [Compound 140]
25: Plant response rating, Corn [3, 16] | Plant response rating, Ragweed [11, 15]
65: Plant response rating, Foxtail, Giant [5, 15] | Goosegrass plant response rating (0 to 100 scale) [6, 14] | Crabgrass, Large plant response rating (0 to 100 scale) [9, 14] | Plant response rating, Morningglory [10, 16] | Plant response rating, Morningglory [10, 17] | Plant response rating, Ragweed [11, 16] | Plant response rating, Cupgrass, Woolly [12, 16] | Plant response rating, Cupgrass, Woolly [12, 17] | Plant response rating, Nutsedge, Yellow [13, 16]
75: Bermudagrass plant response rating (0 to 100 scale) [2, 14] | Foxtail, Giant plant response rating (0 to 100 scale) [5, 14] | Plant response rating, Ragweed [11, 17] | Plant response rating, Nutsedge, Yellow [13, 17]
50: Plant response rating, Crabgrass, Large [9, 15] | Cupgrass, Woolly plant response rating (0 to 100 scale) [12, 14] | Plant response rating, Cupgrass, Woolly [12, 15]
60: Plant response rating, Bermudagrass [2, 15] | Foxtail, Green plant response rating (0 to 100 scale) [7, 14] | Morningglory plant response rating (0 to 100 scale) [10, 14]
10: Plant response rating, Johnsongrass [8, 15] | Plant response rating, Nutsedge, Yellow [13, 15]
80: Plant response rating, Foxtail, Giant [5, 16] | Plant response rating, Crabgrass, Large [9, 16]
35: Plant response rating, Johnsongrass [8, 16]
20: Plant response rating, Bromegrass, Downy [4, 17]
45: Plant response rating, Corn [3, 17] | Plant response rating, Goosegrass [6, 15] | Plant response rating, Foxtail, Green [7, 15] | Plant response rating, Johnsongrass [8, 17] | Ragweed plant response rating (0 to 100 scale) [11, 14] | Nutsedge, Yellow plant response rating (0 to 100 scale) [13, 14]
70: Plant response rating, Goosegrass [6, 16]
85: Plant response rating, Bermudagrass [2, 16] | Plant response rating, Goosegrass [6, 17] | Plant response rating, Foxtail, Green [7, 16]
95: Plant response rating, Foxtail, Green [7, 17]
0: Ryegrass, Italian plant response rating (0 to 100 scale) [1, 14] | Plant response rating, Ryegrass, Italian [1, 15] | Plant response rating, Ryegrass, Italian [1, 16] | Plant response rating, Corn [3, 15] | Plant response rating, Bromegrass, Downy [4, 15] | Plant response rating, Morningglory [10, 15]
15: Johnsongrass plant response rating (0 to 100 scale) [8, 14]
5: Plant response rating, Ryegrass, Italian [1, 17] | Corn plant response rating (0 to 100 scale) [3, 14] | Bromegrass, Downy plant response rating (0 to 100 scale) [4, 14] | Plant response rating, Bromegrass, Downy [4, 16]
90: Plant response rating, Bermudagrass [2, 17] | Plant response rating, Foxtail, Giant [5, 17] | Plant response rating, Crabgrass, Large [9, 17]

O=C1CCCC(O)=C1C(=O)c1cnc(-c2ccccc2)n(-c2cccc(Br)c2)c1=O [Compound 38]
98: Plant response rating, Bermudagrass [2, 23] | Plant response rating, Bermudagrass [2, 21] | Plant response rating, Foxtail, Giant [5, 19] | Plant response rating, Crabgrass, Large [9, 20]
5: Ryegrass, Italian plant response rating [1, 22] | Bromegrass, Downy plant response rating [4, 22]
60: Plant response rating, Ryegrass, Italian [1, 20] | Plant response rating, Crabgrass, Large [9, 21] | Cupgrass, Woolly plant response rating [12, 22]
90: Corn plant response rating [3, 24] | Plant response rating, Goosegrass [6, 20] | Plant response rating, Foxtail, Green [7, 19] | Plant response rating, Crabgrass, Large [9, 23] | Plant response rating, Crabgrass, Large [9, 19] | Plant response rating, Crabgrass, Large [9, 25] | Plant response rating, Cupgrass, Woolly [12, 19]
95: Plant response rating, Foxtail, Giant [5, 18] | Plant response rating, Foxtail, Giant [5, 23] | Goosegrass plant response rating [6, 24] | Plant response rating, Goosegrass [6, 21] | Plant response rating, Foxtail, Green [7, 20] | Foxtail, Green plant response rating [7, 24] | Plant response rating, Johnsongrass [8, 18] | Plant response rating, Johnsongrass [8, 20] | Plant response rating, Ragweed [11, 18] | Plant response rating, Cupgrass, Woolly [12, 20]
10: Plant response rating, Johnsongrass [8, 21] | Plant response rating, Cupgrass, Woolly [12, 25] | Plant response rating, Nutsedge, Yellow [13, 21]
40: Plant response rating, Ryegrass, Italian [1, 18] | Plant response rating, Bromegrass, Downy [4, 18] | Plant response rating, Foxtail, Giant [5, 25] | Plant response rating, Ragweed [11, 21]
55: Plant response rating, Corn [3, 23]
15: Plant response rating, Nutsedge, Yellow [13, 20]
30: Plant response rating, Foxtail, Green [7, 25]
75: Plant response rating, Corn [3, 20] | Plant response rating, Johnsongrass [8, 19] | Plant response rating, Morningglory [10, 20]
70: Plant response rating, Corn [3, 19] | Plant response rating, Bromegrass, Downy [4, 19] | Plant response rating, Morningglory [10, 19] | Nutsedge, Yellow plant response rating [13, 22]
100: Plant response rating, Bermudagrass [2, 18] | Plant response rating, Bermudagrass [2, 19] | Plant response rating, Bermudagrass [2, 20] | Bermudagrass plant response rating [2, 24] | Plant response rating, Bermudagrass [2, 25] | Bermudagrass plant response rating [2, 22] | Plant response rating, Foxtail, Giant [5, 20] | Foxtail, Giant plant response rating [5, 24] | Plant response rating, Goosegrass [6, 18] | Goosegrass plant response rating [6, 22] | Plant response rating, Foxtail, Green [7, 18] | Johnsongrass plant response rating [8, 24] | Plant response rating, Crabgrass, Large [9, 18] | Crabgrass, Large plant response rating [9, 24] | Crabgrass, Large plant response rating [9, 22] | Plant response rating, Morningglory [10, 18] | Cupgrass, Woolly plant response rating [12, 24]
80: Foxtail, Giant plant response rating [5, 22] | Plant response rating, Johnsongrass [8, 25] | Plant response rating, Ragweed [11, 19] | Plant response rating, Ragweed [11, 20] | Ragweed plant response rating [11, 22] | Plant response rating, Cupgrass, Woolly [12, 18] | Plant response rating, Cupgrass, Woolly [12, 23] | Plant response rating, Nutsedge, Yellow [13, 18]
20: Plant response rating, Foxtail, Green [7, 21]
0: Plant response rating, Ryegrass, Italian [1, 21] | Plant response rating, Corn [3, 18] | Plant response rating, Corn [3, 21] | Plant response rating, Corn [3, 25] | Corn plant response rating [3, 22] | Plant response rating, Bromegrass, Downy [4, 21] | Plant response rating, Bromegrass, Downy [4, 25] | Plant response rating, Foxtail, Giant [5, 21] | Plant response rating, Morningglory [10, 21] | Plant response rating, Morningglory [10, 25] | Morningglory plant response rating [10, 22] | Plant response rating, Cupgrass, Woolly [12, 21] | Plant response rating, Nutsedge, Yellow [13, 19]
50: Plant response rating, Ryegrass, Italian [1, 19] | Plant response rating, Bromegrass, Downy [4, 23]
85: Plant response rating, Bromegrass, Downy [4, 20] | Bromegrass, Downy plant response rating [4, 24] | Plant response rating, Goosegrass [6, 19] | Plant response rating, Foxtail, Green [7, 23] | Foxtail, Green plant response rating [7, 22] | Johnsongrass plant response rating [8, 22]
